US20260364186A1, “Chemical Conjugates, Compositions, and Methods of Preparation and Use Thereof” (Transfection Holdings Limited, priority 2022, published 2026)
pIC50: −log10 of the molar value. “And” between values parts separate entries of the source, which are not always exact repeats. Equal values may be shown once.

Columns and labels:
Assay type in all cases: cell-based, human
[1] = system: NZM11 (BRAF V600E) melanoma cells; test: Time course of uptake by FACS (Example 5); conditions: 200 nM
Description: FIG. 5A: Time course of uptake for 124, 125, 131, 132 conjugate compounds. Tests were performed using 200 nM each conjugate and 5, 30, or 60 minute incubation with melanoma cell line NZM11 (BRAF V600E mutant metastatic melanoma). Mean fluorescent intensities (MFI), n=300 mean±SD. The cells were sorted by FACS.
FIG. 5B: Time course of uptake for 124 and 3-azido BODIPY FL. Tests were performed using 200 nM each compound and 1 or 3 hour incubation with melanoma cell line NZM11 (BRAF V600E mutant metastatic melanoma). Mean fluorescent intensities (MFI). n=2000-3000 mean±SD. The cells were sorted by FACS.
Materials and methods: NZM11 cells were suspended at […] dispensed into 96 well plates and left to settle for 48 hours. 10 μL of 10 mM stock solutions in DMSO from the conjugates coupled to BODIPY were diluted with HBSS to afford 400 nM solution. Then, 400 nM compounds and DMSO solutions were diluted 1:1 with MEMα media to afford 200 nM solutions. After 48 hours the media was removed from the 96 well plates and 200 μL of 200 nM conjugates solutions dispensed to each well (in duplicate) and incubated for 5 minutes, 30 minutes and 60 minutes at 37 °C (for the first test) or 60 minutes and 3 hours (for the second test). After indicated incubation time, the media was removed and cells washed with PBS. 100 μL of TrypLE trypsin (ThermoFisher Scientific) were added to each well and incubated for 6.5 minutes at 37 °C after which, 100 μL of MEMα media were added and samples were sorted through FACS biosort. FACS results output represented the mean of the fluorescence intensities (in arbitrary units) measured for cells sorted in every sample. Uptake rate was calculated by the equation: Uptake rate=(MFI2−MFI1)/(T2−T1)
whereby: MFI=mean fluorescent intensities; T=time (at which time the sample was taken); Uptake rate units: fluorescence intensities units per minute.

Jurkat cells = test: FACS uptake of BODIPY FL conjugates in Jurkat cells (Example 3); conditions: 200 nM
Description: FIG. 3B: Conjugate compounds coupled to BODIPY FL were tested for uptake using 200 nM each conjugate and 5 minute incubation with immortalized T lymphocyte cell line, Jurkat cells. Mean fluorescent intensities (MFI). 1,000 cells sorted by FACS. Bars represent mean±SD. Results represent a single experiment done in duplicate.
Materials and methods: Jurkat cells have been previously shown to be defective in the expression of two lipid phosphatases, PTEN (phosphatase and tensin homologue) and SHIP (SH2-domain-containing inositol polyphosphate 5′ phosphatase). The biological implications of SHIP deficiency in T cells remain under evaluation, but the loss of PTEN leads to activation of the phosphatidylinositol 3-kinase (PI3K)-signalling pathway. See Abraham and Weiss, 2004. This activation of PI3K protein is also on NZM40 melanoma cell line, and represents a key mutation for its sustained proliferation. See Silva et al., 2017. For these experiments, Jurkat cells were diluted on RPMI media (supplemented with 10% FBS+1% penicillin-streptomycin) to afford 400 cells/μL. 2 μL of 100 μM stock solutions in DMSO from 138 and pantothenic acid/pantothenic acid derivatives coupled to BODIPY were diluted with 998 μL of RPMI media (supplemented with 10% FBS+1% penicillin-streptomycin) to afford 200 nM solution. 100,000 cells were dispensed to Eppendorf tubes, centrifuged for 1.5 min at 5000 rcf and the supernatant was removed. The cells then were incubated with 500 μL of solutions at 200 nM for 4.5 min and 37 °C. After the incubation time, cells were centrifuged for 1.5 minutes at 5000 rcf. Supernatant was removed and cell pellet re-suspended in 200 μL fresh RPMI media, transferred to 96 well-plate and run on FACS machine, approximately 1,000 cells analysed.

[2] = system: HT29 (colorectal cancer cell line); test: FACS uptake of BODIPY FL conjugates (Example 4); conditions: 200 nM, 5 min
Description: FIG. 4A: Conjugate compounds coupled to BODIPY FL were tested for uptake using 200 nM each conjugate and 5 minute incubation with colorectal cancer cell line HT29. Mean fluorescent intensities (MFI). 1,000 cells were sorted by FACS.
Materials and methods: The HT-29 line was originally isolated from a primary tumour in 1964 from a person. This cell line is positive for expression of N-ras and overexpression of p53 antigen. The human colon adenocarcinoma cell line HT29, is not only used to study the biology of human colon cancers, but it is receiving special interest in studies focused on food digestion and bioavailability due to the ability to express characteristics of mature intestinal cells. The application of this cell line to transport studies of drugs and food compounds is illustrated, especially when the effect of the mucus layer is considered or used as co-culture in combination with Caco-2 cells. These cells have shown a high rate of glucose consumption and therefore, they require high glucose concentration in the medium. Verhoeck et al., 2015.
For these experiments, HT-29 or MEF cells were diluted on αMEM media (supplemented with 10% FBS+1% penicillin-streptomycin) to give a 250 cells/μL suspension of which 200 μL were aliquoted into each well of a 96 well plate followed by incubation for 24 hours. Next, 2 μL of 100 μM stock solutions in DMSO from the conjugates coupled to BODIPY were diluted with 998 μL of αMEM media to give a 200 nM solution. After 24 hour incubation, media was removed and 200 μL of 138 and pantothenic acid/pantothenic acid derivatives coupled to BODIPY 200 nM solutions were added and cells were incubated for 5 minutes at 37 °C. After 5 minutes, the compounds and DMSO solutions were removed and cells were washed with PBS. Then, 100 μL of TrypLE trypsin were added to each well and incubated for 5 minutes at 37 °C. After this time, 100 μL of DMEM media were added to the wells and samples were sorted through FACS biosort. The studies were completed in duplicated wells.

[3] = system: NZM40 (NRAS Q16H) melanoma cells; test: FACS uptake of BODIPY FL conjugates, 200 nM, 5 min (Example 2)
Description: FIG. 2. Conjugate compounds coupled to BODIPY FL were tested for uptake using 200 nM each conjugate and 5 minute incubation with melanoma cell line NZM11 (BRAF V600E mutant metastatic melanoma), melanoma cell line NZM40 (NRAS Q16H mutant metastatic melanoma) and melanoma cell line NZM9 (BRAF and NRAS wildtype metastatic melanoma). Mean fluorescent intensities (MFI). 2,000 cells (NZM11), 1,000 cells (NZM40) and 500-1,000 cells (NZM9). Cells were sorted by FACS. Bars represent mean±SD. Results were from a single experiment done in triplicate.
NZM40 is an adherent cell line which was originally derived from a metastatic melanoma from a patient, in 2004. This human metastatic melanoma is identified with code CBA-1381 from Cell bank Australia. […] Ras is a superfamily of proteins implicated in cell growth, survival and differentiation. NRAS (neuroblastoma rat sarcoma) was the first oncogene recognized in melanoma and mutations in NRAS account for 20% of all melanomas. NRAS mutations primarily occur at position 61 and involve amino acid change from glutamine (Q) to arginine (R), lysine (K), leucine (L) or histidine (H). These mutations block NRAS into a GTP-bound state damaging its GTPase activity (FIG. 1). Patients are usually older (>55 years) with previous UV exposure. See Garcia-Alverez et al., 2021.
For screening, NZM11, NZM40 and NZM9 cells were suspended at […] dispensed into 96 well plates and left to settle for 48 hours. Then, 10 μL of 10 mM stock solutions in DMSO for the conjugates were diluted with HBSS to afford 400 nM solution. Next, 400 nM compounds and DMSO solutions were diluted 1:1 with MEMα media to afford 200 nM solutions. After 48 hours the media was removed from the 96 well plates and 200 μL of 200 nM conjugates solutions dispensed to each well (in triplicate) and incubated for 5 minutes at 37 °C. After 5 minutes, the media was removed and cells washed with PBS. Then, 100 μL of TrypLE trypsin (ThermoFisher Scientific) were added to each well and incubated for 5 minutes at 37 °C after which, 100 μL of MEMα media were added and samples were sorted through FACS biosort. The FACS results output were represented as the mean of the fluorescence intensities (in arbitrary units) measured for cells sorted in every sample.

[4] = system: NZM11 (BRAF V600E mutant metastatic melanoma) cells; test: Sulforhodamine B (SRB) assay of viability / proliferation, auranofin conjugates (Example 8)
Description: FIG. 8: Effect of 136 and 137 (auranofin conjugates) on viability of NZM11 melanoma cells. Cells were incubated with 136 and 137 at 10 μM final concentration and kept at 37 °C for 48 hours. Pantothenic acid (PA), CJ-15,801, and biotin were tested at 200 μM final concentration. […] Two batches of auranofin were tested at 10 μM final concentration.
FIG. 9: The viability data from FIG. 8 was normalised to the treatment plate and DMSO control and plotted as a percentage of cell growth. Individual data points represent technical replicates. Curve indicates non-linear regression slope, which allows determination of IC50 values.
Materials and methods: NZM11 cells were cultured in MEMα media with an initial count of 1020 cells/μL. The cells were then diluted to get 25 cells per μL and 200 μL of this suspension (5000 cells per well), dispensed into 96 well plates and left to settle for 24 hours. 10 mM stock solutions of 136, 137, and auranofin were diluted with 1% FBS MEMα media to give 10 nM, 30 nM, 100 nM, 300 nM, 1 μM, 3 μM, 10 μM, 30 μM and 100 μM solutions. After 24 hours the media was removed from the 96 well plates. To individual wells 200 μL of each dilution were dispensed in triplicate for three groups (136, 137, and auranofin): 1% FBS MEMα media only (DMSO control), 10 nM, 30 nM, 100 nM, 300 nM, 1 μM, 3 μM, 10 μM, 30 μM and 100 μM. The cells were incubated at 37 °C, 5% 02 and 5% CO2 for 48 hours.
In order to test the potency of 136 and 137, the IC50 values were calculated for these auranofin conjugates. For analysis of the treatment plate (Tz) a SRB assay was utilised. For this assay, 50 μL of 50% (w/v) ice-cold trichloroacetic acid (TCA) was added to each well. To achieve this, 5 g of TCA was made up to 10 mL with milliQ H2O. This was cooled on ice. Incubation was carried out for 1 hour at 4 °C to fix cells. TCA and media were removed from cells. Five milliQ washes were carried out and the plate was left to air dry. Next, 50 μL of 0.4% SRB solution (prepared in 1% acetic acid) was added to each well and incubated for 10 minutes at room temperature. The SRB solution was removed and five milliQ washes were carried out. Then, 100 μL of 10 mM Tris solution was added to each well, and the dye was solubilised. Absorbance at 515 nm was read on plate reader. Data was normalized to Tz plate, as per NCI60 screening method (https://dtp.cancer.gov/discovery_development/nci-60/methodology.htm).

Compound: CC1=CC(C)=[N+]2C1=Cc1ccc(CCCN=[N+]=[N-])n1[B-]2(F)F [3-azido BODIPY FL, 3-Azido[4,4-difluoro-5,7-dimethyl-4-bora-3a,4a-diaza-s-indacene-3-yl]propane, reference compound]
- times lower intensities than 124 ([1]; 1 hour): 6 times
- times lower intensities than 124 ([1]; 3 hours): 6 times
- uptake / intensities, in words ([1]; NZM11, time course): low uptake rate

Compound: CC1=CC(C)=[N+]2C1=Cc1ccc(CCCn3cc(CCNC(=O)/C=C\NC(=O)[C@@H]4OC(C)(C)OCC4(C)C)nn3)n1[B-]2(F)F [Compound 129, (Z)—N-((((3-[4,4-Difluoro-5,7-dimethyl-4-bora-3a,4a-diaza-s-indacene-3-yl]propyl)-1H-1,2,3-triazol-4-yl)ethylamino)-3-oxoprop-1-enyl)-2,2,5,5-tetramethyl-1,3-dioxane-4-carboxamide]
- uptake / targeting (Jurkat cells): showed targeting
- uptake (fluorescent intensities) [2]: higher uptakes than their diol counterparts
- uptake (fluorescence intensities) [3]: showed selectivity

Compound: CC1=CC(C)=[N+]2C1=Cc1ccc(CCCn3cc(CCNC(=O)/C=C\NC(=O)[C@@H](O)C(C)(C)CO)nn3)n1[B-]2(F)F [Compound 130, (Z)—N-((((3-[4,4-Difluoro-5,7-dimethyl-4-bora-3a,4a-diaza-s-indacene-3-yl]propyl)-1H-1,2,3-triazol-4-yl)ethylamino)-3-oxoprop-1-enyl)-2,4-dihydroxy-3,3-dimethylbutanamide]
- uptake (fluorescence intensities) [3]: showed selectivity

Compound: (R,E)-((4-(3-(2,4-dihydroxy-3,3-dimethylbutanamido)acrylamido)phenyl)thio)(triethyl-phosphaneyl) Gold (I) [Compound 137]
- reduction on viability, as compared to auranofin itself ([4]; 10 μM, 48 hours): more than 95%
- effect of CJ-15,801/138 on activity ([4]; 138 20 times more concentrated (200 μM)): not affected
- IC50 relative to auranofin ([4]; NZM11, 48 hours): five times higher than auranofin
- pIC50 ([4]; NZM11, 48 hours, SRB assay): 5.53 and ~5.55
- effect of biotin and pantothenic acid on activity ([4]; vitamins 20 times more concentrated (200 μM)): not affected
